The source made the active and inactive calls.
How the values were obtained:
Type in all cases: functional, organism-based
Candida albicans [1] = experiment: Antifungal activity against Candida albicans ATCC 10231 at 50 mM
Staphylococcus aureus [2] = experiment: Antibacterial activity against Staphylococcus aureus ATCC 6538 at 50 mM
Staphylococcus aureus [3] = experiment: Antibacterial activity against Staphylococcus aureus ATCC 6538 at 400 mM
Bacillus subtilis [4] = experiment: Antibacterial activity against Bacillus subtilis at 100 mM
Bacillus subtilis [5] = experiment: Antibacterial activity against Bacillus subtilis at 400 mM
Candida albicans [6] = experiment: Antifungal activity against Candida albicans ATCC 10231 at 400 mM
Escherichia coli [7] = experiment: Antibacterial activity against Escherichia coli at 50 mM
Staphylococcus aureus [8] = experiment: Antibacterial activity against Staphylococcus aureus ATCC 6538 at 100 mM
Escherichia coli [9] = experiment: Antibacterial activity against Escherichia coli at 100 mM
Candida albicans [10] = experiment: Antifungal activity against Candida albicans ATCC 10231 at 100 mM
Escherichia coli [11] = experiment: Antibacterial activity against Escherichia coli at 400 mM
Bacillus subtilis [12] = experiment: Antibacterial activity against Bacillus subtilis at 50 mM

Measured: Activity

COC(=O)Cn1nnnc1C(NC1O[C@H](C)C[C@H](N(C)C)[C@H]1O)c1ccccc1 (some centres undefined)
inactive: all assays above

C[C@@H]1C[C@H](N(C)C)[C@@H](O)C(NCc2nnnn2C(C)(C)C)O1 (some centres undefined)
inactive: all assays above

Reference: ChEMBL document CHEMBL1146179, “Desosamine in multicomponent reactions” (Bioorg Med Chem Lett, 2006)
